Assay results published in patent publication EP4603105A1, “PHARMACEUTICAL COMPOSITION CONTAINING CYCLIC COMPOUND HAVING SELECTIVE KRAS INHIBITORY EFFECT AGAINST HRAS AND NRAS” (CHUGAI SEIYAKU KABUSHIKI KAISHA, priority 2022, dated 2024).
*1 amine or outer side, *2 acyl side, *3 side chain or, on linkers, in order; H or OH if unused. Where a SMILES comes first, the peptide text is derived from it. Bridges are numbered along the chain shown (N, C = ends). [ ]: non-standard residue; d: D form. The star is where a group is joined. ξ: configuration not given here. hPhe(3,5-F2-4-CF3) = N[C@@H](CCc1cc(F)c(C(F)(F)F)c(F)c1)C(=O)O; hPhe(3-Cl-4-CF3) = N[C@@H](CCc1ccc(C(F)(F)F)c(Cl)c1)C(=O)O; NPrPhe(4-CF3) = CCCN[C@@H](Cc1ccc(C(F)(F)F)cc1)C(=O)O; NEtPhe(4-CF3) = CCN[C@@H](Cc1ccc(C(F)(F)F)cc1)C(=O)O; NMeGly(cPent) = CN[C@H](C(=O)O)C1CCCC1; X7 = C[C@@](N[*:1])(C(=O)[*:2])C1CC1; NMeD = CN[C@@H](CC(=O)O)C(=O)O; NMeL = CN[C@@H](CC(C)C)C(=O)O; ξNMeD = CNC(CC(=O)O)C(=O)O; Morpholide = C1CN(*)CCO1; NMeA = CN[C@@H](C)C(=O)O; Ac5c = NC1(C(=O)O)CCCC1; Aze = O=C(O)[C@@H]1CCN1; ξP = O=C(O)C1CCCN1; Sar = CNCC(=O)O

Columns and labels:
[1] = biological target: GDP-bound NRAS wild-type protein (Homo sapiens, UniProt P01111); assay: Binding to NRAS by surface plasmon resonance (SPR), KD and KD ratio to KRAS
Chain of GDP-bound NRAS wild-type protein (P01111 whole entry): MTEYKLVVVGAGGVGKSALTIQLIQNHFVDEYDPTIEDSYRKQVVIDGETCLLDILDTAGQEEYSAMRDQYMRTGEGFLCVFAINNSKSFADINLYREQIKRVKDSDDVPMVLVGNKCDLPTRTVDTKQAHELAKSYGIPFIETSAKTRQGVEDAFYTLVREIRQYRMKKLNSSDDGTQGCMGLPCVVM
Procedure, shortened: (§1)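 GDP-loaded biotinylated Avi-tag RAS proteins (E. coli-expressed) captured on a Biotin CAPture chip at ~100–300 RU; single-cycle kinetics at 30°C, 100 µL/min, 75 s injections of rising compound concentrations. HBS pH 7.4 running buffer with 1 mM DTT, 10 mM MgCl2, 10 µM GDP, 4% DMSO. KD from 1:1 binding fit.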

[2] = test system: human lung cancer strain NCI-H441; assay type: cell-based
Procedure, shortened: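 Readout: […] after the ATP-based reagent. Compound: serial dilutions in dimethyl sulfoxide.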

HRAS wild-type protein = HRAS wild-type protein (Homo sapiens, UniProt P01112); assay: Binding to HRAS by surface plasmon resonance (SPR), KD and KD ratio to KRAS
Chain of HRAS wild-type protein (P01112 whole entry): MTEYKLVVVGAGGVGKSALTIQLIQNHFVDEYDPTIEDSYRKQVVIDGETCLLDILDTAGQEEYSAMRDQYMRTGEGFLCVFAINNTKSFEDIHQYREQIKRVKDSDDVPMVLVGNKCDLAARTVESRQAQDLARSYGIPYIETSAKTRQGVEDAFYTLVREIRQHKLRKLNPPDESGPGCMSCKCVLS
Procedure, shortened: as §1

[3] = ratio of KD for GDP-bound NRAS wild-type protein to KD for KRAS
[4] = ratio of KD for HRAS wild-type protein to KD for KRAS
[5] = ratio of KD value for GDP-bound NRAS wild-type protein to KD value for KRAS (SPR)
[6] = ratio of KD value for HRAS wild-type protein to KD value for KRAS (SPR)

| Compound | IC50 [2] | NRAS /KRAS [1, 3] | HRAS /KRAS (HRAS wild-type protein; [4]) | NRAS /KRAS [1, 5] | HRAS /KRAS (HRAS wild-type protein; [6]) |
| --- | --- | --- | --- | --- | --- |
| CCCN1C(=O)[C@@H]2CCN2C(=O)CN(C)C(=O)[C@H]([C@@H](C)CC)NC(=O)[C@H](CC(C)C)N(C)C(=O)C[C@@H](C(=O)N2CCOCC2)N(C)C(=O)[C@H](C2CCCC2)N(C)C(=O)[C@](C)(C2CC2)NC(=O)[C@@H]2CCCN2C(=O)[C@H](CCc2cc(F)c(C(F)(F)F)c(F)c2)NC(=O)CN(C)C(=O)[C@@H]1Cc1ccc(C(F)(F)F)cc1 [PP0791] ([NMeL]I[Sar][Aze][NPrPhe(4-CF3)][Sar][hPhe(3,5-F2-4-CF3)]P[X7][NMeGly(cPent)][NMeD]-Morpholide; lactam N-11) | 0.086 µM | C (A compound having a KD ratio of 0.1 or more and less than 3 is denoted as C) | B (a compound having 3 or more and less than 10 is denoted as B) |  |  |
| CC[C@H](C)[C@@H]1NC(=O)[C@H](CC)N(C)C(=O)C[C@@H](C(=O)N(CC)CC)N(C)C(=O)[C@H](C2CCCC2)N(C)C(=O)C2(CC(C)(C)C2)NC(=O)[C@@H]2C[C@@H](C)CN2C(=O)[C@H](CCc2ccc(C(F)(F)F)c(OC)c2)NC(=O)CN(C)C(=O)[C@H](Cc2ccc(C)cc2)N2CC/C=C\C[C@@H](C2=O)N(C)C(=O)CN(C)C1=O [PP1841] | 0.0243 µM |  |  | AA (a compound having 20 or more is denoted as AA) | A (a compound having 10 or more and less than 20 is denoted as A) |
| CC[C@H](C)[C@@H]1NC(=O)[C@H](CC(C)C)N(C)C(=O)C[C@@H](C(=O)N(C)C)N(C)C(=O)[C@H](C2CCCC2)N(C)C(=O)C2(CCC2)NC(=O)[C@@H]2[C@@H](OCC(F)F)CCN2C(=O)[C@H](CCc2cc(F)c(C(F)(F)F)c(F)c2)NC(=O)CN(C)C(=O)[C@H](Cc2ccc(C(F)(F)F)cc2)N2CC/C=C\C[C@@H](C2=O)N(C)C(=O)CN(C)C1=O [PP1534] | 0.0247 µM |  |  | AA (a compound having 20 or more is denoted as AA) | A (a compound having 10 or more and less than 20 is denoted as A) |

Second part, led by results:

| IC50 [2] | Compound | NRAS /KRAS [1, 3] | HRAS /KRAS (HRAS wild-type protein; [4]) | NRAS /KRAS [1, 5] | HRAS /KRAS (HRAS wild-type protein; [6]) |
| --- | --- | --- | --- | --- | --- |
| 0.0021 µM | CC[C@H](C)[C@@H]1NC(=O)[C@H](CC(C)C)N(C)C(=O)C[C@@H](C(=O)N2CCOCC2)N(C)C(=O)[C@H](C2CCCC2)N(C)C(=O)C2(CCCC2)NC(=O)[C@@H]2CCCN2C(=O)[C@H](CCc2ccc(C(F)(F)F)c(Cl)c2)NC(=O)CN(C)C(=O)[C@H](Cc2ccc(C(F)(F)F)cc2)N(CC)C(=O)[C@@H]2CCN2C(=O)[C@H](C)N(C)C1=O [PP0002] ([NMeL]I[NMeA][Aze][NEtPhe(4-CF3)][Sar][hPhe(3-Cl-4-CF3)]P[Ac5c][NMeGly(cPent)][NMeD]-Morpholide; lactam N-11) | C (A compound having a KD ratio of 0.1 or more and less than 3 is denoted as C) | C (A compound having a KD ratio of 0.1 or more and less than 3 is denoted as C) |  |  |
| 0.0239 µM | CCCN1C(=O)CN(C)C(=O)CN(C)C(=O)[C@H]([C@@H](C)CC)NC(=O)[C@H](CC(C)C)N(C)C(=O)C[C@@H](C(=O)N2CCOCC2)NC(=O)[C@H](C2CCCC2)N(C)C(=O)C2(CCCC2)NC(=O)[C@@H]2CCCN2C(=O)[C@H](CCc2ccc(C(F)(F)F)c(Cl)c2)NC(=O)CN(C)C(=O)[C@@H]1Cc1ccc(C(F)(F)F)cc1 [PP0146] ([NMeL]I[Sar][Sar][NPrPhe(4-CF3)][Sar][hPhe(3-Cl-4-CF3)]P[Ac5c][NMeGly(cPent)]D-Morpholide; lactam N-11) | B (a compound having 3 or more and less than 10 is denoted as B) | B (a compound having 3 or more and less than 10 is denoted as B) |  |  |
| 0.317 µM | CCCN1C(=O)CN(C)C(=O)CN(C)C(=O)[C@H]([C@@H](C)CC)NC(=O)[C@H](CC(C)C)N(C)C(=O)CC(C(=O)N2CCOCC2)N(C)C(=O)[C@H](C2CCCC2)N(C)C(=O)C2(CCCC2)NC(=O)[C@@H]2CCCN2C(=O)[C@H](CCc2ccc(C(F)(F)F)c(Cl)c2)NC(=O)C2CCCN2C(=O)[C@@H]1Cc1ccc(C(F)(F)F)cc1 (stereo partly drawn) [PP0149] ([NMeL]I[Sar][Sar][NPrPhe(4-CF3)][ξP][hPhe(3-Cl-4-CF3)]P[Ac5c][NMeGly(cPent)][ξNMeD]-Morpholide; lactam N-11) | C (A compound having a KD ratio of 0.1 or more and less than 3 is denoted as C) | B (a compound having 3 or more and less than 10 is denoted as B) |  |  |
